What all share (experiment): NCI-60 cell line screen, 48 h
The subject of assay [1] is M14.
Assay [2] deals with OVCAR-5.
Assay [3] deals with HOP-92.
The test system of assay [4] is SK-MEL-5.
Assay [5] deals with UACC-257.
Assay [6] has as its system CAKI-1.
For assay [7], the system named is NCI-H226.
Assay [8] concerns NCI/ADR-RES.
Assay [9] relates to HCT-116.
The test system of assay [10] is HT-29.
For assay [11], the system named is NCI-H522.
Assay [12] deals with SK-MEL-28.
Assay [13] relates to T47D.
Assay [14] has as its system U-251.
Assay [15] has as its system RXF 393.
The test system of assay [16] is 786-0.
Assay [17] concerns CCRF-CEM.
For assay [18], the system named is SNB-19.
Assay [19] concerns PC-3.

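Briefly, cells in 96-well plates were exposed to five compound concentrations for 48 h, and endpoints were estimated by linear interpolation. GI50 = concentration required for 50% inhibition of growth.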 Active and inactive are the calls of the source. Cut-off read from the data, not from the text of the source: active = GI50 up to about 1.1 µM and inactive = higher. Where only a bound is given, the exact number is not on record here.

Regarding `Cc1oc2nc(N(C)C)nc(Cl)c2c1C`, the GI50 was > 100 µM (inactive) in [1]; > 100 µM (inactive) in [2]; 25.2 µM (inactive) in [3]; > 100 µM (inactive) in [4]; > 100 µM (inactive) in assay [5]; 49.4 µM (inactive) in assay [6]. Also, the GI50 in assay [7] is 84.1 µM (inactive); in assay [8], > 100 µM (inactive); in assay [9], > 100 µM (inactive); in assay [10] it was > 100 µM (inactive); in assay [11], > 100 µM (inactive); in [12] it was > 100 µM (inactive). Also, the GI50 in assay [13] was 46.7 µM (inactive); in assay [14] it was > 100 µM (inactive); in assay [15] it was 40.6 µM (inactive); in [16], > 100 µM (inactive); in [17], > 100 µM (inactive); in assay [18], > 100 µM (inactive). Moreover, the GI50 in assay [19] is > 100 µM (inactive).

Take `Cc1cc(OCc2nn(CN3CCN(C)CC3)c(=S)n2/N=C/c2ccc(-c3ccc(Cl)cc3Cl)o2)ccc1Cl`: the GI50 was 33.7 µM (inactive) in assay [1]; > 100 µM (inactive) in [2]; 21 µM (inactive) in assay [3]; 44.5 µM (inactive) in [4]; 53.5 µM (inactive) in assay [5]; 47.9 µM (inactive) in assay [6]. Further, the GI50 in [7] was 40.4 µM (inactive); in assay [8], 38 µM (inactive); in assay [9] it was > 100 µM (inactive); in [10] it was 28.2 µM (inactive); in [11] it was 24.5 µM (inactive); in assay [12] it was 33.1 µM (inactive). For the same compound, the GI50 in assay [13] is 38 µM (inactive); in assay [14], > 100 µM (inactive); in assay [15] it was 17.2 µM (inactive); in [16] it was 90.2 µM (inactive); in [17], 35.3 µM (inactive); in assay [19], 85.3 µM (inactive).

In the case of `N=c1c2c3n(c4c(=O)n(-c5ccccc5)c(=S)n(c(=O)n1-c1ccccc1)c24)CCCCC3`, the GI50 in assay [1], in assay [2], in assay [3], in [4], in [5] and in [6] was > 100 µM (inactive) throughout. Also, the GI50 in assay [7], in [8], in assay [9], in assay [10], in assay [11] and in [12] was > 100 µM (inactive) each time. Also, the GI50 in [13] was 55.6 µM (inactive); in assay [14], > 100 µM (inactive); in [15], > 75.7 µM (inactive); in [16] it was > 100 µM (inactive); in [17], > 100 µM (inactive); in assay [18], > 100 µM (inactive). The GI50 in [19] is > 100 µM (inactive).

Regarding `C/C(=N\c1cc(Cl)cc(Cl)c1)c1ccncc1`, the GI50 was > 100 µM (inactive) in [1]; > 100 µM (inactive) in [2]; 63.8 µM (inactive) in assay [3]; > 100 µM (inactive) in assay [4]; > 100 µM (inactive) in assay [5]; > 100 µM (inactive) in assay [6]. Further, the GI50 in [7], in [8], in [9], in assay [10], in assay [11] and in assay [12] was > 100 µM (inactive) each time. Moreover, the GI50 in assay [13], in [14], in assay [15], in assay [16], in assay [17] and in assay [18] was > 100 µM (inactive) each time. The GI50 in [19] is > 100 µM (inactive).

As to `O=C1NN=C(c2c[nH]c3ccccc23)CC1NCc1ccccc1` (stereo not given), the GI50 in assay [1], in [2], in assay [3], in assay [4], in [5] and in assay [6] was > 100 µM (inactive) each time. Moreover, the GI50 in [7], in assay [8], in assay [9], in [10], in assay [11] and in assay [12] was > 100 µM (inactive) each time. Moreover, the GI50 in [13], in [14], in assay [15], in assay [16], in [17] and in assay [18] was > 100 µM (inactive) throughout. Besides, the GI50 in assay [19] is > 100 µM (inactive).

Consider `Cc1[nH]n(-c2nc(-c3ccccc3)cc(=O)[nH]2)c(=O)c1CCO`, for which the GI50 in assay [1], in [2], in assay [3], in [4], in assay [5] and in [6] was > 100 µM (inactive) throughout. In addition, the GI50 in assay [7] was > 100 µM (inactive); in assay [8], 71.1 µM (inactive); in assay [9] it was > 100 µM (inactive); in assay [10], > 100 µM (inactive); in [12], > 100 µM (inactive); in assay [13], > 100 µM (inactive). Moreover, the GI50 in assay [14], in assay [15], in assay [16], in assay [17], in assay [18] and in assay [19] was > 100 µM (inactive) each time.

In the case of `CC(C)(C)OC(=O)N(CCCCNCc1ccc2ccccc2c1)CCCNCc1ccc2ccccc2c1`, the GI50 was 1.96 µM (inactive) in assay [1]; 1.67 µM (inactive) in [2]; 1.64 µM (inactive) in [3]; 1.74 µM (inactive) in assay [4]; 1.91 µM (inactive) in assay [5]; 1.17 µM (inactive) in [6]. Besides, the GI50 in assay [7] is 1.64 µM (inactive); in assay [8], 1.57 µM (inactive); in [9], 1.15 µM (inactive); in assay [10], 0.893 µM (active); in assay [11], 1.58 µM (inactive); in assay [12], 1.8 µM (inactive). Besides, the GI50 in [13] is 1.74 µM (inactive); in assay [14] it was 1.89 µM (inactive); in assay [15] it was 1.69 µM (inactive); in [16] it was 1.41 µM (inactive); in [17] it was 1.22 µM (inactive); in [18], 1.76 µM (inactive). Further, the GI50 in [19] is 1.94 µM (inactive).

Take `Oc1ccc(SCc2cc(O)ccc2O)cc1`: the GI50 is 18.4 µM (inactive) in assay [1]; 20.4 µM (inactive) in [2]; 22.3 µM (inactive) in assay [3]; 10 µM (inactive) in assay [4]; 13.9 µM (inactive) in assay [5]; 6.14 µM (inactive) in assay [6]. Moreover, the GI50 in assay [7] is 9.42 µM (inactive); in [8] it was 14.4 µM (inactive); in assay [9], 11.2 µM (inactive); in assay [10], 36 µM (inactive); in assay [11] it was 1.79 µM (inactive); in [12] it was 17.7 µM (inactive). Further, the GI50 in [13] was 8.39 µM (inactive); in assay [14], 14.5 µM (inactive); in assay [15], 11.9 µM (inactive); in assay [16], 12.8 µM (inactive); in assay [17] it was 1.79 µM (inactive); in assay [18], 23.7 µM (inactive). The GI50 in [19] was 6.1 µM (inactive).

The values above are taken from ChEMBL document CHEMBL1201862, “PubChem BioAssay data set” (2004).
